Experimental data: US11629171B2, “Beta-hairpin peptidomimetics” (POLYPHOR AG, priority 2017, dated 2023)
≈ marks a conversion by molar mass, not a printed value. Where a SMILES comes first, the peptide text is derived from it. Bridges are numbered along the chain shown (N, C = ends). Roman numbers before positions name the chains, in order. [ ]: non-standard residue; d: D form. Thr(ol) = C[C@@H](O)[C@H](N)CO; pGlu = O=C1CC[C@@H](C(=O)O)N1; Tle = CC(C)(C)[C@H](N)C(=O)O; NMeV = CN[C@H](C(=O)O)C(C)C; dDab = NCC[C@@H](N)C(=O)O; hSer = N[C@@H](CCO)C(=O)O; Nle = CCCC[C@H](N)C(=O)O; Dab = NCC[C@H](N)C(=O)O; Dap = NC[C@H](N)C(=O)O

How the values were obtained:
Format in all cases: cell-based
[1] = tested on: Escherichia coli ATCC 25922; details: ATCC 25922
In short: (§1)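 Standard CLSI microdilution testing: bacterial suspensions standardized against 0.5 McFarland to about 10^6 CFU/mL in MH-II broth meet serially halved peptide concentrations in broth containing 0.002% polysorbate 80; incubation lasts 18-20 h at 35° C before the MIC is scored.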

[2] = tested on: Klebsiella pneumoniae SSI #3010; details: SSI #3010
In short: as §1

[3] = tested on: Acinetobacter baumannii 872842; details: 872842
In short: as §1

[4] = tested on: Pseudomonas aeruginosa ATCC 27853; details: ATCC 27853
In short: as §1

[5] = tested on: Klebsiella pneumoniae 968733; details: 968733
In short: as §1

[6] = tested on: Enterobacter cloacae 848840; details: 848840
In short: as §1

Escherichia coli 926415 = details: 926415
In short: as §1

[7] = tested on: Acinetobacter baumannii DSM 30008; details: DSM 30008
In short: as §1

[8] = tested on: human red blood cells (hRBC); assay: Hemolysis; details: red cells of human, 1 h, 200
In short: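 Washed fresh human RBC (20% v/v) incubated with peptide at 200 μg/mL for 1 h at 37° C with shaking. Supernatant OD540 measured after dilution, blank corrected; percent hemolysis = OD540 peptide / OD540 of 2% Triton X-100 lysis × 100, PBS with 10% water as 0%.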

Escherichia coli ATCC 25922 MIC [1] | Klebsiella pneumoniae SSI #3010 MIC [2] | MIC [3] | Pseudomonas aeruginosa ATCC 27853 MIC [4] | MIC [5] | MIC [6] | MIC (Escherichia coli 926415) | Acinetobacter baumannii DSM 30008 MIC [7] | MIC [1] | MIC [2] | MIC [4] | MIC [7] | SMILES | Hemolysis at 200 μg/mL [8]
0.01562 µg/mL | 0.0625 µg/mL | 0.03125 µg/mL (≈ 0.013 µM) | 0.0625 µg/mL | 0.0625 µg/mL (≈ 0.0259 µM) | 0.0625 µg/mL (≈ 0.0259 µM) | 0.0625 µg/mL (≈ 0.0259 µM) | 0.01562 µg/mL |  |  |  |  | CCCC[C@@H]1NC(=O)[C@H](CO)NC(=O)[C@H](Cc2c[nH]c3ccccc23)NC(=O)[C@H](CO)NC(=O)[C@@H](CCN)NC(=O)[C@H](CCC(=O)N[C@@H](CCN)C(=O)N[C@H](C(=O)N[C@@H](CN)C(=O)N[C@H]2CCNC(=O)[C@H]([C@@H](C)O)NC(=O)[C@H](CCN)NC(=O)[C@H](CCN)NC(=O)[C@H](CC(C)C)NC(=O)[C@@H](CC(C)C)NC(=O)[C@H](CCN)NC2=O)[C@@H](C)O)NC(=O)[C@H](CCN)NC(=O)[C@H](Cc2ccc(O)cc2)NC(=O)[C@@H](NC(=O)[C@@H](NC(C)=O)C(C)C)CSSC[C@@H](C(=O)N[C@@H](CO)C(N)=O)NC1=O [Ex. 316] (I: Ac-VCY[Dab]E[dDab]SWS[Nle]CS-NH2 / II: [Dab]T[Dap][Dab][Dab][dL]L[Dab][Dab]T; disulfide I:2-I:11; amide I:5-II:N; lactam II:4-II:C) | <1%
 |  | 0.5 µg/mL (≈ 0.215 µM) |  | 4 µg/mL (≈ 1.72 µM) | 0.25 µg/mL (≈ 0.107 µM) | 0.5 µg/mL (≈ 0.215 µM) |  | 0.125 µg/mL (≈ 0.0537 µM) | 0.25 µg/mL (≈ 0.107 µM) | 0.25 µg/mL (≈ 0.107 µM) | 0.125 µg/mL (≈ 0.0537 µM) | CN[C@H](C(=O)N[C@H]1CSSC[C@@H](C(N)=O)NC(=O)[C@H](C(C)C)NC(=O)[C@H](CCO)NC(=O)[C@H](Cc2c[nH]c3ccccc23)NC(=O)[C@H](CCO)NC(=O)[C@@H](CCN)NC(=O)[C@H](CCC(=O)N[C@@H](CCN)C(=O)N[C@H](C(=O)N[C@@H](CCN)C(=O)N[C@H]2CCNC(=O)[C@H]([C@@H](C)O)NC(=O)[C@H](CCN)NC(=O)[C@H](CCN)NC(=O)[C@H](CC(C)C)NC(=O)[C@@H](CC(C)C)NC(=O)[C@H](CCN)NC2=O)[C@@H](C)O)NC(=O)[C@H](CCN)NC(=O)[C@H](Cc2ccc(O)cc2)NC1=O)C(C)C [Example 57] (I: H-[NMeV]CY[Dab]E[dDab][hSer]W[hSer]VC-NH2 / II: [Dab]T[Dab][Dab][Dab][dL]L[Dab][Dab]T; disulfide I:2-I:11; amide I:5-II:N; lactam II:4-II:C) | 3%
 |  | 0.03125 µg/mL (≈ 0.013 µM) |  | 0.0625 µg/mL (≈ 0.0259 µM) | 0.125 µg/mL (≈ 0.0518 µM) | 0.0625 µg/mL (≈ 0.0259 µM) |  | 0.03125 µg/mL (≈ 0.013 µM) | 0.0625 µg/mL (≈ 0.0259 µM) | 0.0625 µg/mL (≈ 0.0259 µM) | 0.03125 µg/mL (≈ 0.013 µM) | CC[C@H](C)[C@@H]1NC(=O)[C@H](CO)NC(=O)[C@H](Cc2c[nH]c3ccccc23)NC(=O)[C@H](CCN)NC(=O)[C@@H](CCN)NC(=O)[C@H](CCC(=O)N[C@@H](CCN)C(=O)N[C@H](C(=O)N[C@@H](CN)C(=O)N[C@H]2CCNC(=O)[C@H]([C@@H](C)O)NC(=O)[C@H](CCN)NC(=O)[C@H](CCN)NC(=O)[C@H](CC(C)C)NC(=O)[C@@H](CC(C)C)NC(=O)[C@H](CCN)NC2=O)[C@@H](C)O)NC(=O)[C@H](CO)NC(=O)[C@H](Cc2ccc(O)cc2)NC(=O)[C@@H](NC(=O)[C@@H](NC(C)=O)C(C)C)CSSC[C@@H](C(=O)N[C@@H](CO)C(N)=O)NC1=O [Ex. 253] (I: Ac-VCYSE[dDab][Dab]WSICS-NH2 / II: [Dab]T[Dap][Dab][Dab][dL]L[Dab][Dab]T; disulfide I:2-I:11; amide I:5-II:N; lactam II:4-II:C) | 2%
 |  | 0.0625 µg/mL (≈ 0.0252 µM) |  | 0.125 µg/mL (≈ 0.0503 µM) | 0.125 µg/mL (≈ 0.0503 µM) | 0.0625 µg/mL (≈ 0.0252 µM) |  | 0.0625 µg/mL (≈ 0.0252 µM) | 0.125 µg/mL (≈ 0.0503 µM) | 0.125 µg/mL (≈ 0.0503 µM) | 0.0625 µg/mL (≈ 0.0252 µM) | CC(C)C[C@@H]1NC(=O)[C@@H](CC(C)C)NC(=O)[C@H](CCN)NC(=O)[C@@H](NC(=O)[C@H](CN)NC(=O)[C@@H](NC(=O)[C@H](CCN)NC(=O)CC[C@@H]2NC(=O)[C@H](CN)NC(=O)[C@H](Cc3ccc(O)cc3)NC(=O)[C@@H](NC(=O)[C@@H](NC(=O)[C@@H]3CCC(=O)N3)C(C)C)CSSC[C@@H](C(=O)N[C@H](CO)[C@@H](C)O)NC(=O)[C@H](C(C)(C)C)NC(=O)[C@H](CO)NC(=O)[C@H](Cc3c[nH]c4ccccc34)NC(=O)[C@H]([C@@H](C)O)NC(=O)[C@@H](CCN)NC2=O)[C@@H](C)O)CCNC(=O)[C@H]([C@@H](C)O)NC(=O)[C@H](CCN)NC(=O)[C@H](CCN)NC1=O [Ex. 232] (I: [pGlu]VCY[Dap]E[dDab]TWS[Tle]C[Thr(ol)] / II: [Dab]T[Dap][Dab][Dab][dL]L[Dab][Dab]T; disulfide I:3-I:12; amide I:6-II:N; lactam II:4-II:C) | <1%
